This is an account of results in paper PMC7933930, “Development of a small molecule that corrects misfolding and increases secretion of Z α1‐antitrypsin” (EMBO Molecular Medicine, 2021).

pEC50, pIC50: −log10 of the molar value.

Holding throughout (assay type): cell-based
For one assay, the system named is CHO‐TET‐ON‐Z‐A1AT cells. The assay can be described thus: Tunicamycin sensitivity, cell viability (Cell Counting Kit‐8), cells expressing Z α1‐antitrypsin. Particulars: 10 μM GSK716, cells expressing Z α1‐antitrypsin, tunicamycin 36 h. How it is done: Figure 2 GSK716 inhibits polymerisation of Z α1‐antitrypsin in cell models of disease • A GSK716 was added to CHO‐TET‐ON‐Z‐A1AT cells (Ordóñez et al, 2013) with simultaneous induction of Z α1‐antitrypsin expression using doxycycline, and polymer load was quantified with the 2C1 monoclonal antibody that is specific to pathological polymers of α1‐antitrypsin (Miranda et al, 2010). […] Data were normalised to vehicle and a control compound from the GSK716 series at saturating concentration. […] It induced an approximately threefold increase in secreted levels of Z α1‐antitrypsin compared with vehicle control. This was apparent even after polymers had been allowed to form. Scale bar: 100 µm. Data presented as mean ± SD, n = 8 (secretion) and n = 6 (polymer inhibition). • E CHO tetracycline‐inducible cells expressing Z α1‐antitrypsin were induced with 0.5 μg/ml doxycycline for 48 h and treated with 10 μM GSK716. […] For every time point, NP‐40‐soluble and NP‐40‐insoluble fractions were separated and immunoprecipitated with the 2C1 mAb and resolved by 4–12% w/v SDS–PAGE and α1‐antitrypsin detected by immunoblotting. […] Cell viability was measured by Cell Counting Kit‐8. […] Samples were resolved by 4–12% w/v acrylamide SDS–PAGE and detected by autoradiography. • H The graphs show the effect of GSK716 on intracellular and extracellular Z α1‐antitrypsin (mean ± SEM, n = 2). […]
A general note: Tetrazolium dyes change colour on reduction, which living cells bring about.

The target of another assay is hERG (Homo sapiens, UniProt Q12809). The assay can be described thus: Off‐target panel: hERG (Barracuda). Particulars: Blocker, read-out: Mean (PXC50) (converted). How it is done: (§1) GSK716 selectivity and PK properties were profiled in order to investigate the suitability of GSK716 for progression into in vivo studies and the potential for taking it forward as a clinical candidate for testing in humans. Since GSK716 results in loss of inhibitory activity of α1‐antitrypsin, the effect of the compound was assessed on other closely related serpins. […] Furthermore, there were no off‐target effects in a panel of assays considered predictive of known safety liabilities that precluded further development of GSK716 (Table EV1).
In general terms: Block of hERG is tested as a sign of cardiac risk.

Another assay addresses Serotonin 5HT1B (Homo sapiens, UniProt P28222). The experiment in a line: Off‐target panel: Serotonin 5HT1B. How it is done:
as §1

A further assay deals with T1, Serotonin 5HT2C (Homo sapiens, UniProt P28335).
T1 sequence (P28335 33-458): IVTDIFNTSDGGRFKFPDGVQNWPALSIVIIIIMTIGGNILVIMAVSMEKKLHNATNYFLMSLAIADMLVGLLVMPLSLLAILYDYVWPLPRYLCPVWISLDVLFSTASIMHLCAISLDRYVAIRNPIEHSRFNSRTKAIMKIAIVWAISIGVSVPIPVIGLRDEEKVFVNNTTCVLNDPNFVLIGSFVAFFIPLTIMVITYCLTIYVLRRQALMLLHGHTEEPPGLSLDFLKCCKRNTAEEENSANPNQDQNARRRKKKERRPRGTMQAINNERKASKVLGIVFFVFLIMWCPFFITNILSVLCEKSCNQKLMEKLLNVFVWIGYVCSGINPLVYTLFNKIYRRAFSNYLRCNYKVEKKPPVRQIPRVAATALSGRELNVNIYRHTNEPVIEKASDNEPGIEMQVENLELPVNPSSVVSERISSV
The experiment in a line: Off‐target panel: Serotonin 5HT2C. How it is done: as §1

Chain of Serotonin 5HT1B (P28222 whole entry): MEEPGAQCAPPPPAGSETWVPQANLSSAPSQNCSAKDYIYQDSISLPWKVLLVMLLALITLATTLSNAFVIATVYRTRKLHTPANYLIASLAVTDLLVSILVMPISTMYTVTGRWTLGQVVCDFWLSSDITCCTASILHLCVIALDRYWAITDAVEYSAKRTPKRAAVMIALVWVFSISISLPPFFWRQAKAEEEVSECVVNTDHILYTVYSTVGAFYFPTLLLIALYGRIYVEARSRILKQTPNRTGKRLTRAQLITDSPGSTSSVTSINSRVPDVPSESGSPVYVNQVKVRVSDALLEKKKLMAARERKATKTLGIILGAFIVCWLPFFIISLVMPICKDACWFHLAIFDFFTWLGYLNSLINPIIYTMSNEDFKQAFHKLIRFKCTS
Chain of hERG (Q12809 whole entry): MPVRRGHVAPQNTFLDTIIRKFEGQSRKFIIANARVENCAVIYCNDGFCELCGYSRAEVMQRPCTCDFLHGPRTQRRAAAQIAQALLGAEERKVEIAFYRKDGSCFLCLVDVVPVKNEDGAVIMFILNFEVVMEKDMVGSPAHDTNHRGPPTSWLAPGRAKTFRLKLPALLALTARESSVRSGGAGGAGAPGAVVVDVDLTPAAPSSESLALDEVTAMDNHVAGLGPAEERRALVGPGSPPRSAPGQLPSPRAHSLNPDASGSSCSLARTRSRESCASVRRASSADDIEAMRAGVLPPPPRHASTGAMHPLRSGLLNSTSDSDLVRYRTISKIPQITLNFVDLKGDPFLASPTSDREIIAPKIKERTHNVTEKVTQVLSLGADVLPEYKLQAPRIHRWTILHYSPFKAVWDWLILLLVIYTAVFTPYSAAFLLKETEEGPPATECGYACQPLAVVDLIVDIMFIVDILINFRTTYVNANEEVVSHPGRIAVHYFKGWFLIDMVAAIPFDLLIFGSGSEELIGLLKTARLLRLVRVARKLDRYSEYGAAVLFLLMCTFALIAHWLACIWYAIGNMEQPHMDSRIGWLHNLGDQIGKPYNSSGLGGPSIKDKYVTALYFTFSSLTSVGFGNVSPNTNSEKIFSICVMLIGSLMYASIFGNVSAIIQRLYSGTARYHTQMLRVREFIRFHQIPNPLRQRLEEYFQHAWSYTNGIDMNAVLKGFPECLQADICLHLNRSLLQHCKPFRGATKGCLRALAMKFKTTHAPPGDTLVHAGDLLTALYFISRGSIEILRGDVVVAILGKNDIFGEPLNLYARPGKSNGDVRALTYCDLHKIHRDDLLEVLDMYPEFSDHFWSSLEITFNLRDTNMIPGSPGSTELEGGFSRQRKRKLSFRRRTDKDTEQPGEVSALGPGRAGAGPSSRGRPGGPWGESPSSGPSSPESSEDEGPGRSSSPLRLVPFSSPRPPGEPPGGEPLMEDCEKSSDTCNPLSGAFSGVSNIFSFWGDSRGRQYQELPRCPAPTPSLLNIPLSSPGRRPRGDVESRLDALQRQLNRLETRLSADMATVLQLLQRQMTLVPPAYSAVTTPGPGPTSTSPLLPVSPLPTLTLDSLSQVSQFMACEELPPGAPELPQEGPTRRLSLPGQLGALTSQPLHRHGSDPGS

For the molecule `CCC[C@@H](NC(=O)c1cccc2c1CC(=O)N2)[C@@H](O)c1cccc(F)c1C` [GSK716], the “sensitivity to tunicamycin (cell viability)” value in the assay with CHO‐TET‐ON‐Z‐A1AT cells was “restored sensitivity of Z α1‐antitrypsin expressing cells to that of the wild‐type control cells”. Moreover, the IC50 on hERG is 15.8 µM. At Serotonin 5HT1B, this molecule gave a pEC50 below 4.00 and a pIC50 below 4.00. On Serotonin 5HT2C, this molecule gave a negative-log EC50 (pEC50) below 4.60 and a pIC50 below 4.60.

The pEC50 is the negative decadic logarithm of the EC50, by convention in mol/L. Higher therefore signals a small EC50. The term pIC50 denotes −log10 of the IC50, conventionally taken in molar units.
